Values of other authors as cited in patent US7718389B2, “Stabilizing composition and stabilizing method of coelenterazine solution for high-throughput measurement of luciferase activity” (National Institute of Advanced Industrial Science and …, priority 2006, dated 2010).

Settings: background statement

Oc1ccc(Cc2nc3c(Cc4ccccc4)nc(-c4ccc(O)cc4)cn3c2O)cc1 [coelenterazine]
pKa value of proton of an imidazopyrazinone ring: around 7.4
